Key:
[1] = Evaluation of sweetness level: choosing the sugar-added sample of equivalent sweetness intensity; type: in vivo
Procedure: In order to evaluate the sweetness levels of Novel steviol glycosides A and B, samples were prepared by adding sugar to pure water to give Brix of 3.0 to 5.0 in 0.5 increments. Compounds 15 and 17 obtained by the chemical syntheses were used as Novel steviol glycosides A and B, respectively, where 48 mg of each sample was dissolved in 400 mL of pure water to be tested. In addition, samples were also prepared for comparison by dissolving 48 mg of each of Reb.A, Reb.D and Reb.M in 400 mL of pure water.

[2] = Sensory evaluation of taste quality of beverage samples (sweetness on-set, lingering sweet aftertaste, bitterness, lingering bitter aftertaste); type: in vivo
From the text: In order to evaluate the taste quality of various steviol glycosides, Reb.A, Reb.D, Reb.M, sugar and Novel steviol glycoside A (Compound 15) were each added to pure water to prepare beverage samples. All of the beverage samples were adjusted to have final sweetness level (Brix) of 5 in terms of sugar (sucrose), and thus the sweetness levels of Reb.A, Reb.D, Reb.M and Novel steviol glycoside A (Compound 15) were 312, 317, 341 and 354, respectively.
(§1) The resulting beverage samples were subjected to sensory evaluation for rating the attributes, which were sweetness on-set, lingering sweet aftertaste, bitterness and lingering bitter aftertaste. Panelists who had been trained about sensory attributes of sweeteners (7 members) evaluated based on the following evaluation criteria. For each evaluation item, the steviol glycosides were scored in 0.5 increments provided that the score of sugar was 3. […]
as §1

[3] = evaluation with Novel steviol glycoside A (Compound 15), restated averages of Table 2
[4] = evaluation with Novel steviol glycoside B (Compound 17), restated averages of Table 3

Row | Compound | sweetness level, times higher in average than that of sugar ([1]; average of panelists, 48 mg in 400 mL pure water) | sweetness levels taken for adjusting the beverage samples to Brix 5 in terms of sugar [1, 3] | sweetness (sensory evaluation, in words) ([2]; beverage samples in pure water, Brix 5 in terms of sugar, vs Reb.A, Reb.D, Reb.M, FIG. 14) | lingering sweet and bitter aftertastes ([2]; general statement in the description) | sweetness levels taken for adjusting the beverage samples to Brix 5 in terms of sugar [1, 4]
1 | C=C1CC23CCC4C(C)(C(=O)OC5OC(CO)C(O)C(O)C5OC5OCC(O)C(O)C5O)CCCC4(C)C2CCC1(OC1OC(CO)C(O)C(OC2OC(CO)C(O)C(O)C2O)C1OC1OC(CO)C(O)C(O)C1O)C3 (stereo not shown) [Novel steviol glycoside A] | about 354 times | 354 | less sweetness | less lingering sweet and bitter aftertastes | –
2 | C=C1C[C@@]23CC[C@H]4[C@@](C)(CCC[C@@]4(C)C(=O)O[C@@H]4O[C@H](CO)[C@@H](O)[C@H](O)[C@H]4O)[C@@H]2CC[C@]1(O[C@@H]1O[C@H](CO)[C@@H](O)[C@H](O[C@@H]2O[C@H](CO)[C@@H](O)[C@H](O)[C@H]2O)[C@H]1O[C@@H]1O[C@H](CO)[C@@H](O)[C@H](O)[C@H]1O)C3 [Reb A, rebaudioside A] | – | 312 | – | – | 288
3 | C=C1C[C@@]23CC[C@H]4[C@@](C)(CCC[C@@]4(C)C(=O)O[C@@H]4O[C@H](CO)[C@@H](O)[C@H](O)[C@H]4O[C@@H]4O[C@H](CO)[C@@H](O)[C@H](O)[C@H]4O)[C@@H]2CC[C@]1(O[C@@H]1O[C@H](CO)[C@@H](O)[C@H](O[C@@H]2O[C@H](CO)[C@@H](O)[C@H](O)[C@H]2O)[C@H]1O[C@@H]1O[C@H](CO)[C@@H](O)[C@H](O)[C@H]1O)C3 [Reb D, rebaudioside D] | – | 317 | – | – | 310
4 | C=C1C[C@@]23CC[C@H]4[C@@](C)(CCC[C@@]4(C)C(=O)O[C@@H]4O[C@H](CO)[C@@H](O)[C@H](O[C@@H]5O[C@H](CO)[C@@H](O)[C@H](O)[C@H]5O)[C@H]4O[C@@H]4O[C@H](CO)[C@@H](O)[C@H](O)[C@H]4O)[C@@H]2CC[C@]1(O[C@@H]1O[C@H](CO)[C@@H](O)[C@H](O[C@@H]2O[C@H](CO)[C@@H](O)[C@H](O)[C@H]2O)[C@H]1O[C@@H]1O[C@H](CO)[C@@H](O)[C@H](O)[C@H]1O)C3 [Reb M, rebaudioside M] | – | 341 | – | – | 324

— patent US20220256902A1, “NOVEL STEVIOL GLYCOSIDE, METHOD FOR PRODUCING SAME, AND SWEETENER COMPOSITION CONTAINING SAME” (SUNTORY HOLDINGS LIMITED, priority 2019, published 2022)
